US20100330172A1, “CONTROLLED-RELEASE PHARMACEUTICAL FORMULATION” (ALPHAPHARM PTY LTD, priority 2007, published 2010)

Tests used:
[1] = cited from earlier work
[2] = tested on: norepinephrine uptake; conditions: in vitro studies; cited from earlier work
[3] = tested on: dopamine uptake; conditions: in vitro studies; cited from earlier work
[4] = Desvenlafaxine particle size (MMD); format: physicochemical; conditions: particle size of desvenlafaxine salt grade
Text: The “mass mean diameter” or “MMD” refers to the median particle diameter based on mass (i.e. the particle diameter where one half of the mass of particles is contributed by particles with a lesser diameter and one half of the mass of particles is contributed by particles with a greater diameter) and can be measured using various commonly available methods such as measurement using light (eg. light-scattering methods or turbidimetric methods), sedimentation methods (eg. pipette analysis using an Andreassen pipette, sedimentation scales, photo-sedimentometers or sedimentation in a centrifugal force), pulse methods (eg. Coulter counter), or sorting by means of gravitational or centrifugal force.
The particle size of desvenlafaxine utilised in the following formulations are set out in Table 1.

[5] = in vitro dissolution, USP II apparatus (paddles), 50 rpm, pH 6.8 phosphate buffer; format: physicochemical; conditions: FIG. 1; similar time points; matrix tablets with Eudragit NE40D
Procedure: FIG. 1 is the in vitro dissolution profiles of embodied formulations of the present invention when measured using a USP II apparatus at 50 rpm in pH 6.8 phosphate buffer.
The resulting in vitro dissolution profiles of these batches as tested using a USP II apparatus (paddles) at 50 rpm in pH 6.8 phosphate buffer are set out in Table 3.

MMD (mass mean diameter) [4]	Structure (SMILES)	change in amount of desvenlafaxine dissolved, coarse to fine [5]	other results
186 μm	CN(C)CC(c1ccc(O)cc1)C1(O)CCCCC1.O=C(O)CCC(=O)O (stereo not shown) [Coarse succinate]		
21 μm	CN(C)CC(c1ccc(O)cc1)C1(O)CCCCC1.O=C(O)/C=C/C(=O)O (stereo not shown) [Fine fumarate]	approximately similar increase in the amount of desvenlafaxine dissolved	
37 μm	CN(C)CC(c1ccc(O)cc1)C1(O)CCCCC1.O=C(O)CCC(=O)O (stereo not shown) [Fine succinate]	marked increase in the amount of desvenlafaxine dissolved	

The remaining lines, values behind:

Structure (SMILES)	MMD (mass mean diameter) [4]	change in amount of desvenlafaxine dissolved, coarse to fine [5]	other results
CN(C)CC(c1ccc(O)cc1)C1(O)CCCCC1 (racemic) [desvenlafaxine, (+/−)-4-[2-(dimethylamino)-1-(1-hydroxycyclohexyl)ethyl]phenol]			half-life ([1]; in vivo): about 10 hours; half-life relative to venlafaxine ([1]; times longer than the half-life of venlafaxine): approximately 2.5 times; inhibition of norepinephrine uptake compared with racemic venlafaxine [2]: more potent inhibitor; inhibition of dopamine uptake compared with racemic venlafaxine [3]: more potent inhibitor
CN(C)CC(c1ccc(O)cc1)C1(O)CCCCC1.O=C(O)/C=C/C(=O)O (stereo not shown) [Coarse fumarate]	184 μm		
